# Measurements taken from patent US20040072871A1, “Novel thiophene derivatives, their process of preparation and the pharmaceutical compositions which comprise them” (priority 2002, published 2004).
# Key:
# MMP-12 = MMP-12 (Homo sapiens, UniProt P39900); assay: In vitro inhibition of proteolysis of fluorogenic peptide substrate FP-1 by MMP-12; format: biochemical; details: substrate FP-1 10 μM, 20 minutes at ambient temperature, compounds tested 0.3 to 30 μM
# Procedure: (§1) The inhibitory activity of the compounds of formula (I) with regard to metalloproteinase-12 is evaluated by testing the ability of the compounds of the invention to inhibit the proteolysis of a peptide substrate by MMP-12.
# (§2) The inhibitory activity of a compound of formula (I) is expressed as IC50 value, which represents the concentration of inhibitor at which a degree of inhibition of the metalloproteinase of 50% is observed.
# (§3) The reaction begins with the sequential addition of 41 μl of substrate FP-1 (final concentration of 10 μM) to a buffer solution of 50 mM of Tris-HCl and 10 mM of CaCl2, which comprises 5 mM of hydroxamic acid and 5 μl of the enzyme diluted in a 0.005% Brij-35 buffer solution. The microplates are incubated for 20 minutes at ambient temperature. The compounds of the invention are tested at concentrations varying from 0.3 to 30 μM.
# (§4) The measurement of the amount of proteolysis of the peptide substrate is monitored by a measurement of absorbance at 405 nm using a microplate spectrophotometer, at ambient temperature. The IC50 values are calculated from curves in which the percentage of the catalytic activity relative to the control is represented on the […] and the concentration of inhibitor is represented on the Y axis.
# MMP-13 = MMP-13 (Homo sapiens, UniProt P45452); assay: MMP-12 test adapted to MMP-13; format: biochemical
# Procedure: as §1, §2, §3, §4
# The test described above for the inhibition of MMP-12 is adapted and used to determine the ability of the compounds of formula (I) to inhibit the metalloproteinases MMP-1, MMP-2, MMP-3, MMP-7, MMP-9, MMP-13 and MMP-14. […] More specifically, the compounds of the present invention generally show a selectivity with a factor of greater than 50 with respect to the metalloproteinases mentioned above, except towards MMP-13. Thus, the compounds of the present invention also show an inhibitory activity with regard to MMP-13, making it possible to also use the pharmaceutical compositions comprising one or more compounds of the invention in the treatment of pathologies related to activity of MMP-13. Mention may be made, among these pathologies, by way of indication and without implied limitation, of cancer, osetoporosis, osteoarthritis, arthritis, rheumatoid arthritis, atherosclerosis, multiple sclerosis, cardiac insufficiency, asthma and chronic obstructive pulmonary disease.
# [1] = Solubility remark on the isolated sodium salt; format: physicochemical; details: sodium salt form, remark in the synthesis
# Procedure: 1.2 ml of water and 30.5 mg of lithium hydroxide (5 equivalents) are added to a solution of 118 mg of the compound obtained in the preceding Stage 1 in 1.5 ml of methanol. The reaction medium is stirred at 50° C. for 2 hours and then concentrated under reduced pressure. The residue obtained is taken up in ether and the insoluble material is removed. The ethereal solution, after several treatments with acid and base, results in the formation of a precipitate, which is isolated.
# Chain of MMP-12 (P39900 106-470): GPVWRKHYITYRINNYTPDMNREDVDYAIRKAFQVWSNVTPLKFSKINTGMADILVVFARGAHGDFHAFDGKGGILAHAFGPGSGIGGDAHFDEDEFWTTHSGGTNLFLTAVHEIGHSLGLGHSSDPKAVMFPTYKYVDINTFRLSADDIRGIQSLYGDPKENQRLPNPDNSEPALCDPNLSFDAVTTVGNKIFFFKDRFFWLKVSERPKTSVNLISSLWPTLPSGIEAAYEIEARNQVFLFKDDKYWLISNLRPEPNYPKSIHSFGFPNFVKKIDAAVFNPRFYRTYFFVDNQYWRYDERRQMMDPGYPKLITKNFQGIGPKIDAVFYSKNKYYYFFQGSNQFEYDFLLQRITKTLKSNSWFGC
IC50 (MMP-12),IC50 (MMP-13),solubility [1],SMILES
0.78 µM,6.2 µM,–,"O=C(O)CC[C@H]1CC[C@H](NC(=O)c2cc(-c3ccc(OC(F)(F)F)cc3)cs2)CC1 [Example 129, trans-3-(4-{[4-(4-Trifluoromethoxyphenyl)thien-2-yl]-carboxamido}cyclohexyl)propanoic acid]"
0.425 µM,3.3 µM,–,"O=C(O)CC1CCC(CNC(=O)c2cc(-c3ccc(OC(F)(F)F)cc3)cs2)CC1 (stereo not drawn) [Example 131, [4-({[4-(4-Trifluoromethoxyphenyl)thien-2-yl]carboxamido}methyl)-cyclohexyl]acetic acid]"
0.95 µM,2.65 µM,–,"O=C(NCc1ccc(O)c(C(=O)O)c1)c1cc(-c2ccc(OC(F)(F)F)cc2)cs1 [Example 133, 2-Hydroxy-({[4-(4-trifluoromethoxyphenyl)thien-2-yl]-carboxamido}methyl)benzoic acid]"
0.78 µM,10.1 µM,–,"CC(C)[C@H](NC(=O)c1cc(-c2ccc(OC(F)(F)F)cc2)cs1)C(=O)O [Example 150, (2S)-2-{[4-(4-Trifluoromethoxyphenyl)thien-2-yl]carboxamido}-3-methylbutanoic acid]"

# Continued, compound first:
SMILES,IC50 (MMP-12),IC50 (MMP-13),solubility [1]
"O=C(O)Cc1ccc(CNC(=O)c2cc(-c3ccc(-c4cncnc4)cc3)cs2)cc1 [Example 111, 2-{4-[({4-[4-(Pyrimidin-5-yl)phenyl]thien-2-yl}carboxamido)-methyl]phenyl}acetic acid]",0.7 µM,2.2 µM,–
O=C(O)Cc1ccc(CNC(=O)c2cc(-c3ccc(-c4ccccc4O)cc3)cs2)cc1 [Example 115],0.25 µM,3.32 µM,–
"CC(=O)c1ccc(-c2ccc(-c3csc(C(=O)NCc4ccc(CC(=O)O)cc4)c3)cc2)c(O)c1 [Example 117, 2-{4-[({4-[4-(4-Acetyl-2-hydroxyphenyl)phenyl]thien-2-yl}-carboxamido)methyl]phenyl}acetic acid]",0.16 µM,0.31 µM,–
"O=C(NCCN1CCOCC1)c1cc(-c2ccc(-c3ccccc3F)cc2)cs1 [Example 120, 4-[4-(2-Fluorophenyl)phenyl]-N-(2-morpholin-4-ylethyl)thiophene-2-carboxamide]",0.66 µM,6.1 µM,–
"CC(=O)c1ccc(-c2ccc(-c3csc(C(=O)NC[C@H]4CC[C@H](C(=O)O)CC4)c3)cc2)cc1 [Example 123, trans-4-[({4-[4-(4-Acetylphenyl)phenyl]thien-2-yl}carboxamido)-methyl]cyclohexanecarboxylic acid]",0.018 µM,0.031 µM,–
"CC(=O)c1ccc(-c2ccc(-c3csc(C(=O)NCc4ccc(C(=O)O)cn4)c3)cc2)cc1 [Example 135, 6({[4-(4′-Acetyl-4-biphenyl)thien-2-yl]carboxamido}methyl)-nicotinic acid]",0.042 µM,0.08 µM,–
"O=C(O)Cc1ccc(-c2ccc(-c3csc(C(=O)NCCN4CCOCC4)c3)cc2)cc1.[Na+] [Example 146, {4′-[5-(2-Morpholin-4-ylethylcarbamoyl)thiophen-3-yl]biphenyl-4-yl}-acetic acid, sodium salt]",–,–,very low solubility
